Read-outs that look alike come from different tables or passages of the source.
Columns and labels:
HsNMT1 = biological target: T1, HsNMT1 (Homo sapiens, UniProt P30419); assay: Human NMT1 scintillation proximity dose-response assay; format: biochemical; conditions: Table 2; single determination; read-out: Hs1 IC50
T1 construct: made in house
T1 sequence (P30419 1-496): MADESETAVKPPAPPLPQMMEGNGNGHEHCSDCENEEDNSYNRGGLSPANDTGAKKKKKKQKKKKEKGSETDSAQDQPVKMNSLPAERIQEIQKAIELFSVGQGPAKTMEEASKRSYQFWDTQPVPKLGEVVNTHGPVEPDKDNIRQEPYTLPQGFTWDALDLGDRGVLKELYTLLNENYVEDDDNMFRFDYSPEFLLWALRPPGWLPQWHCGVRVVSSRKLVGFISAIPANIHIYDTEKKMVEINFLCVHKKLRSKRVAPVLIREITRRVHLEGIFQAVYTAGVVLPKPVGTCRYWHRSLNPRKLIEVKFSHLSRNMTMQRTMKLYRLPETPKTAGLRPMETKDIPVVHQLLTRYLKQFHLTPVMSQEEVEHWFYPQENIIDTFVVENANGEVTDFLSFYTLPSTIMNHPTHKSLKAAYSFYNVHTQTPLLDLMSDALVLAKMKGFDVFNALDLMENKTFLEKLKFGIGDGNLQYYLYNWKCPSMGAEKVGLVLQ

T brucei NMT = biological target: T2, T brucei NMT (Trypanosoma brucei brucei, UniProt Q388H8); assay: T. brucei NMT scintillation proximity dose-response assay; format: biochemical
T2 construct: made in house
T2 sequence (Q388H8 1-446): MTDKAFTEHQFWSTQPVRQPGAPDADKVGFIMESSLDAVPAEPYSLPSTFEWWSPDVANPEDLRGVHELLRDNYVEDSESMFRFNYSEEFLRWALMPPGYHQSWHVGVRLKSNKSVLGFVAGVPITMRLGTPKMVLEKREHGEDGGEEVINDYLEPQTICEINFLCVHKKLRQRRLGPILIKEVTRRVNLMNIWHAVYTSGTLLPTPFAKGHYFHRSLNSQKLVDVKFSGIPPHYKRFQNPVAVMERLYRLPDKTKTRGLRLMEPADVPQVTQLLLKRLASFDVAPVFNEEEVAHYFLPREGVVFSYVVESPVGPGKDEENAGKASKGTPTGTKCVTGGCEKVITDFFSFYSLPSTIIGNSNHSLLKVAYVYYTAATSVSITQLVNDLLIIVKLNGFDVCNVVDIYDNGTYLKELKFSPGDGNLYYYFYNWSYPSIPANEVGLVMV

HsNMT2 = biological target: T3, HsNMT2 (Homo sapiens, UniProt O60551); assay: Human NMT2 scintillation proximity dose-response assay; format: biochemical; conditions: Table 2; single determination; read-out: Hs2 IC50
T3 construct: made in house
T3 sequence (O60551 1-498): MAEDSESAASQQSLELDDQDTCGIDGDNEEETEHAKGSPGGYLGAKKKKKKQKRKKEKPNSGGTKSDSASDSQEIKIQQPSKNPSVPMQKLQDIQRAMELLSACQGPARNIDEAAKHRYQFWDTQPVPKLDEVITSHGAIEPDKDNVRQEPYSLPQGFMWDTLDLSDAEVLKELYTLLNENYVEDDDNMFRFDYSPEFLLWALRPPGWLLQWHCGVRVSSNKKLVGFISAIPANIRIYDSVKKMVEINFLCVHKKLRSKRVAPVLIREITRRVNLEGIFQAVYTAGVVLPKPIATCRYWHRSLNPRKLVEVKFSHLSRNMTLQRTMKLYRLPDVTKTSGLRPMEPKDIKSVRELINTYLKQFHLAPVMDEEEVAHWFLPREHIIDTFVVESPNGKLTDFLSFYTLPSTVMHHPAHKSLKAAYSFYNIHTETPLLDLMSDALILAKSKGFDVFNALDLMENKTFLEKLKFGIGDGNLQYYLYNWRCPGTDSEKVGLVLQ

L. donovani NMT = L. donovani NMT (Leishmania donovani, UniProt D0AB09); assay: biochemical; conditions: for Ldon LE: ligand efficiency calculated from Ldon NMT IC50
Sequence of L. donovani NMT (D0AB09 entry or part of it): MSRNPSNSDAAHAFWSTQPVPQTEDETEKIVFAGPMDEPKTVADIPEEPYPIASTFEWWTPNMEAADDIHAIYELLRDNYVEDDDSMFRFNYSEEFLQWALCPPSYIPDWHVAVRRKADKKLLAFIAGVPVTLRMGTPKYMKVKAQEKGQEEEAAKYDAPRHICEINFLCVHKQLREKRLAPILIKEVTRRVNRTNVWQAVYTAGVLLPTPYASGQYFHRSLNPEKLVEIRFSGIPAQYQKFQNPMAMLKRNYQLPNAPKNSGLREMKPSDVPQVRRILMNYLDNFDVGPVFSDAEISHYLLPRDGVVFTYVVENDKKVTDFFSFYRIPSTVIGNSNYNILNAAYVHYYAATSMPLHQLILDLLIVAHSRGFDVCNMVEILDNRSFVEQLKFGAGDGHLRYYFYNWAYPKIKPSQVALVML
Protocol: Recombinant P. falciparum (Swiss-Prot Q81LW6) and L. donovani NMTs (EMBL accession number FN555136) were produced at the University of York, using established protocols. An assay format based on scintillation proximity technology to monitor enzyme activity was used as previously described, [30].
The Pfizer Global Diverse Representative Set consisting of 150,000 compounds was screened at 20 µM final assay concentration. Assay plates were prepared by dispensing 0.1 µL of compound dissolved in DMSO using the Vario system (Cybio) into white 384-well plates (Greiner Bio-One).
(§1) The reaction was initiated by adding 10 µL of the substrate mixture to each well containing the pre-incubated enzyme/compound mixture, and allowed to proceed at RT for 80 min. The reaction was quenched by the addition 20 µl of stop solution to each well. Stop solution consisted of 0.75 M MgCl2 (Sigma), 0.1 M phosphoric acid (Sigma) and 1 mg/ml of streptavidin-coated polystyrene SPA beads (Perkin-Elmer). Plates were sealed using topseals (Perkin-Elmer) and left overnight to allow the bead solution to settle. Radioactive counts were measured with an integration time of 300 sec per plate using the Leadseeker Generation 4 plate reader (GE Healthcare). Each plate included a positive control of 1 µM final assay concentration of DDD85646 [22] and 1% DMSO as a negative control. […] The data were analysed using Pfizer SIGHTS software and visualised using Spotfire software (TIBCO).

P. falciparum NMT = biological target: T4, P. falciparum NMT (Plasmodium falciparum, UniProt Q8ILW6); assay: biochemical; conditions: for Pfal LE: ligand efficiency calculated from Pfal NMT IC50; for Pfal/Ldon Sel: selectivity for Pfal NMT over Ldon NMT derived from IC50 values
T4 construct: made in house
T4 sequence (Q8ILW6 1-410): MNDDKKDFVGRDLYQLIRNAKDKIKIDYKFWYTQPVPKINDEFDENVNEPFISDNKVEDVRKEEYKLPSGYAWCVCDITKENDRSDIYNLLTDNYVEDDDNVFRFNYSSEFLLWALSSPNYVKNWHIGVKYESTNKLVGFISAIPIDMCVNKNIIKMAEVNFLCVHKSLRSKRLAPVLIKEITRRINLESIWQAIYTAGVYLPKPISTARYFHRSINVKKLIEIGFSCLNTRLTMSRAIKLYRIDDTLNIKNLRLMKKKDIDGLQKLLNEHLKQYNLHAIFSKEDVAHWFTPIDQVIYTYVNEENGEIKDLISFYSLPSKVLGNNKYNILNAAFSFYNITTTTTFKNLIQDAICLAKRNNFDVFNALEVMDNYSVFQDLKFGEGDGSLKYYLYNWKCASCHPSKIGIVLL
Protocol: Recombinant P. falciparum (Swiss-Prot Q81LW6) and L. donovani NMTs (EMBL accession number FN555136) were produced at the University of York, using established protocols. An assay format based on scintillation proximity technology to monitor enzyme activity was used as previously described, [30]. […]
as §1

[1] = Table 2, single determination, read-out: Tb IC50
[2] = Table 1, mean of 3 separate experiments, top concentration 80 µM, read-out: Ldon IC50
[3] = Table 2, mean of 3 determinations, read-out: Ldon IC50
[4] = Table 1, mean of 3 separate experiments, top concentration 80 µM, read-out: Pfal IC50
[5] = Table 2, mean of 3 determinations, read-out: Pfal IC50
[6] = Ldon IC50, Table 1, mean of 3 separate experiments, top concentration 80 µM
[7] = Ldon IC50, Table 2, mean of 3 determinations

Compound | IC50 (HsNMT1) [µM] | IC50 (T brucei NMT; [1]) [µM] | IC50 (HsNMT2) [µM] | IC50 (L. donovani NMT; [2]) [µM] | IC50 (L. donovani NMT; [3]) [µM] | IC50 (P. falciparum NMT; [4]) [µM] | IC50 (P. falciparum NMT; [5]) [µM] | Pfal LE (P. falciparum NMT) | Pfal/Ldon Sel (P. falciparum NMT) | Ldon LE (L. donovani NMT) | IC50 (L. donovani NMT; [6]) [µM] | IC50 (L. donovani NMT; [7]) [µM] | IC50 (T brucei NMT) [µM] | IC50 (P. falciparum NMT) [µM]
CNCC(=O)N1CC[C@@H](NC(=O)c2ccccc2C(F)(F)F)C1 [CP-854190] | 0.57 | > 80 | 1.59 | 38.7 | 38.7 | 1.72 | 1.72 | 0.34 | 22.5 |  |  |  |  | 
c1cncc(CCNCc2cccc(-c3cccc(CN4CCc5ncsc5C4)c3)c2)c1 [PF-00075634] | 36.1 | > 80 | 26.7 | 0.158 | 0.16 | > 80 | > 80 |  |  | 0.29 |  |  |  | 
Cn1c(CN2CCC(c3cc(F)cc(F)c3)CC2)nc2cc(Cl)ccc21 [PF-03665853] | 0.51 | 35.4 | 0.56 |  |  | 0.91 | 0.91 | 0.32 | >88 |  | > 80 | > 80 |  | 
Cc1cc2nc(N(C)C3CCN(C)CC3)nc(N(C)CCC#N)c2s1 [PF-00349412] | 9 |  | 11.5 |  |  |  |  |  |  | 0.34 | 0.482 | 0.48 | 56.2 | 39.6

Further lines, with some results ahead:

IC50 (HsNMT1) [µM] | IC50 (T brucei NMT; [1]) [µM] | IC50 (HsNMT2) [µM] | IC50 (L. donovani NMT; [2]) [µM] | IC50 (L. donovani NMT; [3]) [µM] | IC50 (P. falciparum NMT; [4]) [µM] | IC50 (P. falciparum NMT; [5]) [µM] | Pfal LE (P. falciparum NMT) | Pfal/Ldon Sel (P. falciparum NMT) | Ldon LE (L. donovani NMT) | Compound | IC50 (L. donovani NMT; [6]) [µM] | IC50 (L. donovani NMT; [7]) [µM] | IC50 (T brucei NMT) [µM] | IC50 (P. falciparum NMT) [µM]
5.2 | 1.5 | 14.7 | 0.093 | 0.093 | 71.9 | 71.9 |  |  | 0.35 | NC(CC(=O)N1CC(CO)C(c2ccc(Cl)cc2)C1)Cc1ccc(Cl)cc1 (centres unmarked) [PF-03402623] |  |  |  | 
70 | > 80 | 76 | 72 | 72 | 0.482 | 0.48 | 0.31 | 150 |  | Cc1cnc(CNC(=O)C2CN(c3nc(NCCN(C)C)ncc3Cl)C2)cn1 [PF-03531814] |  |  |  | 

Source: publication PMC3335879, “Selective Inhibitors of Protozoan Protein N-myristoyltransferases as Starting Points for Tropical Disease Medicinal Chemistry Programs” (PLoS Neglected Tropical Diseases, 2012)
